Marks after values point to notes of the source that are not given here.
Tested on: humoral immunity in rats (splenocytes producing anti-sheep erythrocyte antibodies)
Test: Direct haemolytic plaque (plaque-forming cells, PFC) test after immunisation with sheep erythrocytes
Type: in vivo, male Wistar rats
Conditions: rat; for % inhibition: haemolytic plaques (PFC)
Method: The immunosuppressive activity was evaluated by studying the humoral immunity in rats through the quantification of direct haemolytic plaques (“plaque-forming cells”—PFC) after immunisation with sheep erythrocytes.
This technique consists in stimulating the immune system with an anti-genic agent, the sheep erythrocytes, and in evaluating the effect of a substance on the immune response. This immune response is evaluated by measuring the proportion of splenocytes that produce anti-sheep erythrocyte antibodies in the presence of a complement (Jerne N. K., 1974).
The effect of the compounds, in suspension in methylcellulose hydrogel (Sigma ref: M0512), on the immune system was evaluated in male Wistar rats after oral administration for 5 and 7 days (5 days before sensitisation and 2 days after). The administration volume was 10 ml/kg.
10 rats were used in each group, each group corresponding to a dose of a compound, plus a control group (blank) and a positive control group (reference substance). The reference substance used was cyclophosphamide (monohydrate) from Sigma (ref: C0768) at a dose of 20 mg/kg administrated subcutaneously at a rate of 1 ml/kg, only administrated on the fifth day. During the four previous days, the animals were treated with the compound vehicle (methylcellulose).
On the fifth day, one hour after treatment, the animals were sensitised with sheep erythrocytes administrated intravenously (caudal vein), at a rate of 0.5 ml per animal. The sheep erythrocytes were suspended at a concentration of 2×10^9 cells/ml in a sodium chloride solution (isotonic).
On the ninth day, i.e. 4 days after sensitisation, the spleen was removed after euthanasia by exsanguination (section of the abdominal aorta) of the animals, which were previously anaesthetised with pentobarbital (Sanofi, 60 mg/kg).
Half of the spleen was broken up (ground), giving, after preparation, a suspension of splenocytes in PBS buffer (Dulbecco Gibco Ref: 3018199) containing 10^7 cells per millilitre.
The haemolytic plaque (PFC) reaction was induced by addition of 50 microlitres of the splenocyte suspension obtained for each animal in 200 microlitres of a suspension of PBS comprising complement and sheep erythrocytes.
The mixture, placed between the slide (holder) and cover slip creating an evaluation chamber (40 μl) delimited by paraffin, was incubated for one hour at 37° C.
At the end of the incubation, the slides were immediately placed flat at 4° C. The evaluation was performed as soon as possible. The number of haemolytic plaques (PFC) was determined by a standardised method of slide evaluation using an optical microscope. A haemolytic plaque (PFC) is a plaque where only one trapped splenocyte can be observed. The number of haemolytic plaques (PFC) is calculated for 10^6 spleen cells.

SMILES	% inhibition (1st experiment, 30 mg/Kg oral, treatment for 5 days before sensitisation) [%]	% inhibition (1st experiment, 100 mg/Kg oral, treatment for 5 days before sensitisation)	% inhibition (1st experiment, 300 mg/Kg oral, treatment for 5 days before sensitisation)	% inhibition (2nd experiment, 0.01 mg/Kg oral, treatment for 7 days (5 days before sensitisation and 2 days after)) [%]	% inhibition (2nd experiment, 0.1 mg/Kg oral, treatment for 7 days (5 days before sensitisation and 2 days after))	% inhibition (2nd experiment, 1 mg/Kg oral, treatment for 7 days (5 days before sensitisation and 2 days after))	dose giving a statistically significant decrease in the number of haemolytic plaques (PFC) (oral, decrease in the humoral immune response) [mg/kg]	effect in relation to the treatment phase (treatment before sensitisation only vs. also after sensitisation)	% inhibition (1st experiment, cyclophosphamide 20 mg/Kg subcutaneously, only on the fifth day)	% inhibition (2nd experiment, cyclophosphamide 20 mg/Kg subcutaneously, only on the fifth day)
O=C(CC(Cc1ccccc1)C(=O)O)c1ccc(F)cc1 (single isomer, unassigned; (-)) [Molecule A, (−) 4-(4-Fluorophenyl)-4-oxo-2-phenylmethylbutanoic acid]	3	19** %	29** %	0	43 * %	42** %	≥ 0.1	stronger effect after the sensitisation phase	–	–
O=P1(N(CCCl)CCCl)NCCCO1 (stereo not shown) [Cyclophosphamide, cyclophosphamide, reference compound]	–	–	–	–	–	–	–	–	85** %	54** %
